Test results taken from US20250313530A1, “SMALL MOLECULE INHIBITORS OF INTERLEUKIN-4 AND USES THEREOF” (Trustees of Boston University, priority 2024, published 2025).
Several values for one entry are separate records, joined by “and”; a condition that tells them apart may be missing. Identical values can stand only once. Like-named read-outs stand apart in the source and are kept apart here.

Key:
[1] = tested on: IL-4 induced STAT-6 phosphorylation in THP-1 monocytes (type II IL-4 receptor); assay: THP-1 STAT-6 phosphorylation assay (western blot); type: cell-based
Procedure: THP-1 cells were received as a gift from the laboratory of Dr. Mark Grinstaff and maintained in RMPI-1640 with […] heat-inactivated Fetal Bovine Serum and 50 μM beta-mercaptoethanol. Cells used for assays were between passages 6 and 10, 10 ng/mL IL-4 was preincubated with experimental sample (vehicle or analogs) for 30 minutes at 37° C. 1 mL of each solution was then added to a pellet of 2 E6 THP-1 cells and pipetted up and down. THP-1 cells were incubated for 30 minutes in the incubator at 37 C/5% CO2. Cells were then spun down and lysed with 200 μL ice-cold RIPA buffer complete with phosphatase and protease inhibitors. Cell lysates were incubated on ice for 30 minutes, spun down and the supernatants were stored at −20° C. until western blot analysis. Undiluted cell lysates were run on SDS-PAGE and transferred to Immunoblot PVDF membrane using Biorad equipment. Membranes were incubated with 1:1000 primary antibody overnight at 4° C. Membranes were then incubated with 1:50,000 dilution secondary for 1 hour at room temperature. Membranes were then exposed to Femto ECL for 5 minutes and imaged using a Bio-Rad Gel Doc. The brightness/contrast was adjusted in FIJI and the area under the curve of each lane was quantified. The phosphorylated STAT-6 to STAT-6 ratio was calculated and normalized to the amount of total STAT-6. The data was plotted and analyzed using GraphPad Prism 9.2.0′.

[2] = Mouse plasma stability; type: in vitro ADME
[3] = biological target: T1, IL-4 (Homo sapiens, UniProt P05112); assay: Surface plasmon resonance binding to IL-4
T1 construct: purchased Acros Biosystems IL4-H4218; host or cells: HEK-293
T1 sequence (P05112 25-153): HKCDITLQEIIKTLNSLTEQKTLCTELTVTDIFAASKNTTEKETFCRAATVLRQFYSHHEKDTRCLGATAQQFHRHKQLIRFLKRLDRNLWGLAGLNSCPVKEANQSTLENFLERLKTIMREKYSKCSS
Procedure: Surface plasmon resonance was performed on a Biacore S200. Series S Sensor chips were purchased from Cytiva. The running buffer was 1×PBS pH 7.40 with 2% DMSO and 0.1% Tween-20 and the flow rate was kept at 50 μL/min. The SA chip was first activated with 120 μL of 1 M NaCl in 50 mM NaOH followed by a wash of 50% Isopropanol in 1 M NaCl and 50 mM NaOH, 200 μl of a 1 mg/ml solution of Avi-tagged IL-4 in DMSO-free buffer was used to immobilize 7073 RU on the chip surface using the BiacoreS200 software, 100 μl of 50 mM Biocytin was used to block all biotin slides on the sensor chip with manual setting. The system was then primed with running buffer for 7 minutes. […] Analog 15 was diluted in the running buffer and injected for 300 seconds cycles, in an ascending order. The dissociation phase was 600 seconds long. Sensorgram figures were created by exporting the raw data and plotting in Graphpad Prism 9.2.0^48.

[4] = biological target: T2, soluble IL-4 (Homo sapiens, UniProt P05112); assay: Differential scanning fluorimetry (thermal shift), IL-4; type: binding
T2 sequence (P05112 25-153): T1 sequence (P05112 25-153)
Procedure: DSF was performed using BioRad CFX384.

[5] = tested on: IL-4 induced pSTAT-6 in THP-1 cells; assay: THP-1 pSTAT-6 immunofluorescence
Procedure: IL-4 and analogs or vehicle (DMEM with 2% DMSO) were preincubated for 2 hours at 37° C. After the incubation, IL-4 or IL-4/analogs were incubated with THP-1 cells for 30 min at 37° C./5% CO2. Incubated cells were centrifuged for 5 min at 250×g. After aspirating the supernatant, cells were resuspended in 1×PBS and plated into a MatTek dish coated with Cell Tak adhesive for 30 minutes at room temperature. Cells were fixed with 4% Paraformaldehyde for 1 hour at room temperature. Cells were rinsed twice with 1×PBS and then permeabilized with 0.5% Triton-X for 1 hour at room temperature. Cells were rinsed again with 1×PBS, and blocked for an hour in superblock with 0.05% Tween-20, rinsed twice, and then incubated with anti-pSTAT-6 1:100 diluted in superblock 0.05% Tween-20 overnight at 4° C. (parafilmed to avoid evaporation). Cells were rinsed thrice with 1×PBS and then incubated with Mouse anti-rabbit IgG(H+L) Secondary Antibody-Alexa Fluor 647 for 1 hour at room temperature in the dark. […] Cells were rinsed twice with 1×PBS and left in 1 ml of 1×PBS. Confocal Imaging was done using an Olympus FV10i and images were processed using FIJI.

[6] = Human plasma stability; type: in vitro ADME
[7] = tested on: B16-F10 cells; assay: In vitro cytotoxicity (CellTiter-Glo); type: cell-based; details: up to 25 μM
Procedure: CellTiter-Glo 2.0 purchased from Promega G9242) was used to measure cell viability with the Victor-3 plate reader (PerkinElmer) after 24 hours in concentrations of compound up to 25 μM. Vehicle was used as a negative control for both cytotoxicity and growth inhibition, methanol was used as a positive control for cytotoxicity, and 1% FBS was used as a positive control for growth inhibition.

[8] = biological target: T1, IL-4; assay: HEK-Blue IL-4/IL-13 reporter assay, IL-4 inhibition; type: cell-based; details: control: cells with 10 μM compound only, no IL-4
[9] = Mouse hepatic microsome stability; type: in vitro ADME; details: mouse hepatic microsomes
[10] = biological target: IL-13 (Homo sapiens, UniProt P35225); assay: HEK-Blue IL-4/IL-13 reporter assay, IL-13 inhibition; type: cell-based; details: soluble IL-13 mediated signaling, HEK Blue IL-4/IL-13 reporter assay
Procedure: Prior to screening. […] The solution was added to preincubated cells in a 96-well culture plate. The supernatant was then incubated with Quanti-Blue dye for 3 hours and absorbance was measured at 650 nm. Data was analyzed and plotted using GraphPad Prism 9.2.0.

[11] = biological target: T1, IL-4; assay: HEK-Blue IL-4/IL-13 reporter assay, IL-4 inhibition; type: cell-based; details: for EC50: dose response, IL-4 inhibition
Procedure: HEK-Blue IL-4/IL-13 Inhibition assay. HEK-Blue IL-4/IL-13 reporter cell lines were purchased from Invivogen and cultured in DMEM with 10% Heat Inactivated Fetal Bovine Serum (FBS), 100 U/ml-100 μg/ml Pen-Strep, 10 μg/ml blasticidin, 100 μg/ml Normocin and 100 μg/ml Zeocin. Cells were tested for secreted embryonic alkaline phosphatase (SEAP) production induced by IL-4 alone prior to small molecule screening.
22.5 μl of small molecule in DMEM 4% DMSO was added to 22.5 μl of 1 ng/ml IL-4 in DMEM in a non-binding 96-well reaction plate for 30 minutes at room temperature. The reaction plate was further incubated for 30-60 min at 37° C. HEK-Blue IL-4/IL-13 reporter cell line was used between passages 11-17. […] Measurements were done in triplicate. The plate was incubated for ˜22-24 hours at 37° C./5% CO2. Quanti-Blue dye was prepared as per the manufacturer's recommendation and 160 μl was dispensed in each well of a 96-well plate (avoid edges to avoid evaporation), 40 μl of cell supernatant was added to the same plate and incubated for 3 hours at 37° C./5% CO2. Optical density was then measured at 650 nm using Molecular Devices SpectraMax M5 Microplate reader. Data was analyzed and plotted using GraphPad Prism 9.2.0.

Sequence of IL-13 (P35225 25-146): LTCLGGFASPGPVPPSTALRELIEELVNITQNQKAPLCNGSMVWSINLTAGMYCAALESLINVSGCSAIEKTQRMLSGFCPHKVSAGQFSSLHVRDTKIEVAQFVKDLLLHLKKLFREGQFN

## N#Cc1c(-c2ccc(O)c(O)c2)cc(-c2ccccc2)[nH]c1=N [Compound 15, 4-(3,4-dihydroxyphenyl)-2-imino-6-phenyl-1,2-dihydropyridine-3-carbonitrile]
[1]; Homo sapiens, THP-1 monocytes, western blot, normalized to STAT-6, read-out: EC50 of inhibition of STAT-6 phosphorylation
  EC50: 49.6 nM
[1]; total STAT-6, THP-1 cells
  STAT-6 levels: not impacted
[2]
  Mouse plasma stability (% remaining after 3 hours): 94.3%
[3]; SPR kinetic binding constant
  kd: 8.34 e−04 s^−1
[3]; SPR steady-state affinity analysis
  Kd: 31.9 nM
[3]; pH 7.4, read-out: ka
  kon: 26200 M⁻¹ s⁻¹
[4]; IL-4 shift minus IL-2 shift, 2 μM, read-out: thermal shift for IL-4 stronger than for IL-2 by
  ΔTm at 2 µM: > 1 °C
[4]; soluble IL-4, 2 μM compound, 0.1% DMSO, read-out: Tm shift
  ΔTm at 2 µM: 1.75 °C
[5]; 50 nM
  STAT-6 phosphorylation by immunofluorescence: reduced STAT-6 phosphorylation
[5]; 500 nM
  STAT-6 phosphorylation by immunofluorescence: complete inhibition of phosphorylation
[6]
  Human plasma stability (% remaining after 3 hours): 97.4%
[7]
  Cytotoxicity in B16-F10 cells (24 hours): no toxicity
[7]; listed as Analog 15
  Cytotoxicity in B16-F10 cells (24 hours): n.s. < 25 μM
[8]
  Abs650: 0.06345 ± 0.001036
[9]
  Mouse hepatic microsome stability (% remaining after 1 hour): 30.3%
[10]
  EC50: 4490 nM
[11]; HEK-Blue, 10 μM, IL-4, HEK Blue IL-4/IL-13 reporter assay
  inhibition at 10 µM: 95.5%
[11]; HEK Blue IL-4/IL-13 reporter assay, read-out: EC50
  EC50: 850 nM and 550 nM
[11]; values in text, read-out: potency (EC50 of inhibition)
  EC50: 552 nM
[11]; fit of dose response in HEK Blue IL-4/IL-13 reporter assay
  Hill coefficient: 1.49±0.15
